Measurements published in US6150414A, “Compositions and methods for treating viral infections” (priority 1992, dated 2000).
Where “and” joins values, the source holds several entries; their conditions need not be identical. Identical values can stand only once. Like-named read-outs stand apart in the source and are kept apart here.

Tests used:
[1] = Stability to light and pH; format: physicochemical
Friend Virus = test: Friend Virus-induced splenomegaly, WIS compounds (Example 8); format: in vivo, mice; design: Actual Spleen Weight / Average Spleen Weight: unit not given here; conditions: Table VII; for Actual Spleen Weight: single animal
Description: The effects of compositions according to the present invention on the increase in spleen size (splenomegaly) of BALB/c mice (Jackson Labs, Bar Harbor, ME) was examined. In these experiments, the virus (10^6 focus forming units--FFU) was inoculated intravenously and 100 micrograms of the compounds indicated in Table II were administered to the mice intraperitoneally 24 hours later. Each compound was administered once to two mice. The animals were sacrificed ten days later and their spleens weighed.
As used in Table II (and subsequent Tables of this Example l(a) and (b), "average percent inhibition" is calculated as follows: [formula] wherein "ASWNC" designates "average spleen weight of negative control"; "ASWE" designates "average spleen weight of experimental (treated) subject"; and "ASWPC" designates "average spleen weight of positive control". Average spleen weight is the numerical average of spleen weights of each experimental group (in Table II each such group includes two members).
The AAB compounds whose synthesis is described above were assayed for antiviral activity. WIS-2, -3, -4, -5 and -6 were tested to determine their biological effects on Friend Virus-induced splenomegaly using the procedure and technique set forth in Example 1 above. The assay results (three mice per group were tested each at different concentrationss of the active composition except for the PBS-negative control wherein two animals per group were used) are reported in Table VII below.

retroviruses (virions) = test: Direct inactivation of retroviruses (virions) in vitro (Example 10); format: biochemical, Radiation Leukemia Virus; conditions: Table IX
Method in brief: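 RadLV-containing supernatants from chronically infected B10.T(6R) cells incubated 30 min on ice with hypericin or protohypericin. Virions then pelleted at 100,000×g for 1 h at 4° C and assayed for reverse transcriptase activity. EC50 is the micromolar concentration inhibiting 50% of virus.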

[2] = biological target: T1, Radiation Leukemia Virus reverse transcriptase (Radiation murine leukemia virus, UniProt P11227); test: Radiation Leukemia Virus reverse transcriptase assay, supernatants from infected AQR cells (Examples 4 and 9); format: biochemical; conditions: Table VIII; for CPM: replicate
T1 construct: the reverse transcriptase of Radiation Leukemia Virus; endogenous in cells
Description: (§1) Supernatants (10 ml/tube) from B10.T(6R) cells (Meruelo et al. J. Exp. Med. 147: 470-487, 1978) chronically infected with Radiation Leukemia Virus (RadLV) were obtained by centrifugation of cells in culture at 4° C., 3500 rpm for 15 minutes. The top 2/3 of the supernatant were removed and aliquots were incubated for 30 minutes on ice with the indicated amounts of hypericin or protohypericin. […] Thereafter, supernatants were centrifuged at 100,000×g using a TI70 rotor (Beckman Instruments) for 1 hour at 4° C. The pellet was […] and analyzed for reverse transcriptase activity as follows.
(§2) The reverse transcriptase assay was performed in a volume of 100 microliters containing the following components:
The antiviral activity of HHA was tested using AQR (Bach and Meruelo, J. Exp. Med. 160:270-285, 1984) cells chronically infected with Radiation Leukemia Virus in the reverse transcriptase assay as described in Example 3 above.
The assays were conducted using the same procedure as in Example 3 above, using supernatants from infected AQR cells.

retroviruses = test: Comparison over two in vitro and one in vivo biological assays (Example 10); conditions: Example 10, structural comparison
Description: In order to investigate the structural features of hypericin which are essential for antiretroviral activity, numerous analogs and precursors of hypericin were examined for activity in two in vitro and one in vivo biological assay.
(1) Direct inactivation of retroviruses in vitro, performed as in Example 3 above;
(§3) (3) In vivo inhibition of Friend Leukemia Virus Splenomegaly performed as described in Example 1 above except that the compounds were administered intravenously 1-2 hours post infection.

Friend Leukemia Virus = test: In vivo inhibition of Friend Leukemia Virus splenomegaly, intravenous 1-2 hours post infection (Example 10); design: species or system mice; conditions: Mus musculus, read-out: EC50 for FV-induced splenomegaly
Description: as §3
The results presented above in Table IX are presented as EC50 concentrations. These are the effective concentrations which inhibit 50% of the viruses in micromolar concentrations.

[3] = biological target: T1, Radiation Leukemia Virus reverse transcriptase; test: Reverse transcriptase assay of Radiation Leukemia Virus from B10.T(6R) cell supernatants (Example 3); format: biochemical; conditions: for Average CPM / CPM / Average percent inhibition: Table V; for CPM: replicate
Description: as §1, §2
The reverse transcriptase assay provides a measure of the antiviral activity of the compounds tested by reference to the observed decrease in activity of this enzyme.
In Table V, "CPM" is "counts per minute", "Average" is the numerical average of CPM values within each group of animals.

**Q.** Which results are given for Cc1cc(O)c2cc3c(O)cc(O)c4c5c(O)cc(O)c6cc7c(O)cc(C)c8c1c2c(c34)c(c78)c65 [WIS-5, desoxyhypericin]?
**A.** stability vs pH ([1]; neutral or acetic pH): decomposses readily in neutral or acetic pH; Average % Inhibition (Friend Virus; 1 microgram): 5.9%; Average Spleen Weight (Friend Virus; 1 microgram): 0.9197; Actual Spleen Weight (Friend Virus; 1 microgram): 0.9062 and 0.9528 and 0.9001; Average % Inhibition (Friend Virus; 10 micrograms): 6.5%; Average Spleen Weight (Friend Virus; 10 micrograms): 0.9147; Actual Spleen Weight (Friend Virus; 10 micrograms): 0.9126 and 0.8898 and 0.9417; Average % Inhibition (Friend Virus; 50 micrograms): 19.3%; Average Spleen Weight (Friend Virus; 50 micrograms): 0.8134; Actual Spleen Weight (Friend Virus; 50 micrograms): 0.7817 and 0.8389 and 0.8196; Average % Inhibition (Friend Virus; 150 micrograms): 35.2%; Average Spleen Weight (Friend Virus; 150 micrograms): 0.6879; Actual Spleen Weight (Friend Virus; 150 micrograms): 0.6919 and 0.6790 and 0.6927; EC50 (retroviruses (virions)): > 21 µM; Average CPM ([2]; 0.05 micrograms): 193,017 CPM; CPM ([2]; 0.05 micrograms): 183,654 CPM and 202,380 CPM; Average CPM ([2]; 0.1 micrograms): 171,635 CPM; CPM ([2]; 0.1 micrograms): 172,984 CPM and 170,286 CPM; Average CPM ([2]; 0.5 micrograms): 249,351 CPM; CPM ([2]; 0.5 micrograms): 240,372 CPM and 258,330 CPM; Average CPM ([2]; 1 microgram): 251,168 CPM; CPM ([2]; 1 microgram): 238,782 CPM and 263,554 CPM; Average CPM ([2]; 2 micrograms): 205,469 CPM; CPM ([2]; 2 micrograms): 216,764 CPM and 194,174 CPM; Average CPM ([2]; 5 micrograms): 236,878 CPM; CPM ([2]; 5 micrograms): 220,588 CPM and 253,168 CPM; Average CPM ([2]; 10 micrograms): 177,364 CPM; CPM ([2]; 10 micrograms): 168,008 CPM and 186,720 CPM; inhibition at 50 ng ([2]; 0.5 h, 0.05 micrograms): 76.4%; inhibition at 0.0001 mg ([2]; 0.5 h, 0.1 micrograms): 79%; inhibition at 0.0005 mg ([2]; 0.5 h, 0.5 micrograms): 69.5%; inhibition at 0.001 mg ([2]; 0.5 h, 1 microgram): 69.2%; inhibition at 0.002 mg ([2]; 0.5 h, 2 micrograms): 74.8%; inhibition at 0.005 mg ([2]; 0.5 h, 5 micrograms): 71%; inhibition at 0.01 mg ([2]; 0.5 h, 10 micrograms, read-out: Average % Inhibition): 78.3%; loss of antiviral activity relative to parent (retroviruses): significant loss of in vivo reverse transcriptase inhibitory activity; EC50 (Friend Leukemia Virus; i.v. 1-2 hours post infection, Table IX): > 316 µM

**Q.** For Cc1cc(O)c2c(=O)c3c(O)cc(O)c4c5c(O)cc(O)c6c(=O)c7c(O)cc(C)cc7c(c65)c(c2c1)c34 [protohypericin, Protohypericin], which “stability to light” value ([1]; irradiation / exposure to light) is on record?
**A.** converts to hypericin upon exposure to light

**Q.** What about the “Average CPM” value ([3]; 0.05 micrograms) of the same compound?
**A.** 309,103 CPM

**Q.** What about the CPM ([3]; 0.05 micrograms) of the same compound?
**A.** 310,952 CPM and 307,254 CPM

**Q.** And the “Average CPM” value ([3]; 0.1 micrograms)?
**A.** 261,083 CPM

**Q.** And the CPM ([3]; 0.1 micrograms)?
**A.** 216,824 CPM and 305,342 CPM

**Q.** And the “Average CPM” value ([3]; 0.5 micrograms)?
**A.** 257,879 CPM

**Q.** What about the CPM ([3]; 0.5 micrograms) of the same compound?
**A.** 264,710 CPM and 251,048 CPM

**Q.** What about the “Average CPM” value ([3]; 1 microgram) of the same compound?
**A.** 227,614 CPM

**Q.** What about the CPM ([3]; 1 microgram) of the same compound?
**A.** 192,184 CPM and 263,044 CPM

**Q.** And the “Average CPM” value ([3]; 5 micrograms)?
**A.** 12,633 CPM

**Q.** What about the Average percent inhibition ([3]; 5 micrograms) of the same compound?
**A.** 94.0%

**Q.** And the CPM ([3]; 5 micrograms)?
**A.** 12,358 CPM and 12,908 CPM

**Q.** What about the “Average CPM” value ([3]; 10 micrograms) of the same compound?
**A.** 185,539 CPM

**Q.** And the Average percent inhibition ([3]; 10 micrograms)?
**A.** 11.3%

**Q.** What about the CPM ([3]; 10 micrograms) of the same compound?
**A.** 202,656 CPM and 168,422 CPM

**Q.** What about the “Average CPM” value ([3]; 50 micrograms) of the same compound?
**A.** 71,641 CPM

**Q.** What about the Average percent inhibition ([3]; 50 micrograms) of the same compound?
**A.** 65.8%

**Q.** And the CPM ([3]; 50 micrograms)?
**A.** 75,816 CPM and 67,466 CPM

**Q.** What about the “Average CPM” value ([3]; 100 micrograms) of the same compound?
**A.** 10,281 CPM

**Q.** What about the Average percent inhibition ([3]; 100 micrograms) of the same compound?
**A.** 95.1%

**Q.** What about the CPM ([3]; 100 micrograms) of the same compound?
**A.** 8,818 CPM and 11,744 CPM

**Q.** What about the “inhibition of RadLV reverse transcriptase activity” value ([3]; Example 3) of the same compound?
**A.** significantly inhibited the reverse transcriptase activity of RadLV

**Q.** What about the “concentration required relative to hypericin for the same degree of RT inhibition” value ([3]; RadLV, vs hypericin) of the same compound?
**A.** 10 to 100 fold

**Q.** And the EC50 (retroviruses (virions))?
**A.** 7.9 µM

**Q.** And the EC50 (Friend Leukemia Virus)?
**A.** 98 µM
